Experimental data taken from article PMC6576746, “Rational discovery of dual-indication multi-target PDE/Kinase inhibitor for precision anti-cancer therapy using structural systems pharmacology” (PLoS Computational Biology, 2019).
pEC50, pIC50: −log10 of the molar value.

Experiments:
Test in all cases: cells
Parameters in all cases: species or system panel of human cancer cell lines; Eurofins OncoPanel proliferation; nuclei count by high-content fluorescence imaging, 10-point dose response
647-V = details: Homo sapiens, 647-V, 72 h, cell count, 3 days
Procedure, shortened: (§1)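 Cells in RPMI 1640/10% FBS or special medium received compound the day after seeding, with a time-zero plate; 3-day incubation at 37°C, 5% CO2. Nuclei imaged by fluorescence microscopy; 10 half-log doses from 100 μM, 0.1% DMSO. EC50, IC50, GI50 and activity area (0–10) from curve fits.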

769-P = details: Homo sapiens, 769-P, 72 h, cell count, 3 days
Procedure, shortened: as §1

A-704 = details: Homo sapiens, A704, 72 h, cell count, 3 days
Procedure, shortened: as §1

BC-1 = details: Homo sapiens, BC1, 72 h, cell count, 3 days
Procedure, shortened: as §1

DoTc2 4510 = details: Homo sapiens, DoTc2-4510, 72 h, cell count, 3 days
Procedure, shortened: as §1

GA-10 = details: Homo sapiens, GA-10, 72 h, cell count, 3 days
Procedure, shortened: as §1

HeLa = details: Homo sapiens, HeLa, 72 h, cell count, 3 days
Procedure, shortened: as §1

L-428 = details: Homo sapiens, L-428, 72 h, cell count, 3 days
Procedure, shortened: as §1

LS123 = details: Homo sapiens, LS-123, 72 h, cell count, 3 days
Procedure, shortened: as §1

NCI-H292 = details: Homo sapiens, NCI-H292, 72 h, cell count, 3 days
Procedure, shortened: as §1

OE19 = details: Homo sapiens, OE19, 72 h, cell count, 3 days
Procedure, shortened: as §1

RKOE6 = details: Homo sapiens, RKOE6, 72 h, cell count, 3 days
Procedure, shortened: as §1

SK-UT-1 = details: Homo sapiens, SK-UT-1, 72 h, cell count, 3 days
Procedure, shortened: as §1

U266B1 = details: 72 h, cell count, 3 days
Procedure, shortened: as §1

[1] = 50% of maximum possible response

pIC50 (HeLa; [1]): 4.04 | GI50 (HeLa; corrected for time zero): 75 µM | pEC50 (HeLa; curve inflection point): 4.04 | pIC50 (NCI-H292; [1]): 4.39 | GI50 (NCI-H292; corrected for time zero): 34.4 µM | pEC50 (NCI-H292; curve inflection point): 4.39 | pIC50 (SK-UT-1; [1]): 4.93 | GI50 (SK-UT-1; corrected for time zero): 9.1 µM | pEC50 (SK-UT-1; curve inflection point): 4.93 | pIC50 (U266B1; [1]): 4.02 | GI50 (U266B1; corrected for time zero): 46.2 µM | pEC50 (U266B1; curve inflection point): 4.02
Structure (SMILES): C[C@@H]1CC(=O)NN=C1c1ccc(NN=C(C#N)C#N)cc1 [levosimendan]
pIC50 (647-V; [1]): 4.86 | GI50 (647-V; corrected for time zero): 8.64 µM | pEC50 (647-V; curve inflection point): 4.86 | pIC50 (769-P; [1]): 4.40 | GI50 (769-P; corrected for time zero): 28.6 µM | pEC50 (769-P; curve inflection point): 4.03 | pIC50 (A-704; [1]): < 4.00 | GI50 (A-704; corrected for time zero): 64.7 µM | pEC50 (A-704; curve inflection point): < 4.00 | pIC50 (BC-1; [1]): 4.72 | GI50 (BC-1; corrected for time zero): 14.6 µM | pEC50 (BC-1; curve inflection point): 4.72 | pIC50 (DoTc2 4510; [1]): 4.84 | GI50 (DoTc2 4510; corrected for time zero): 11.4 µM | pEC50 (DoTc2 4510; curve inflection point): 4.97 | pIC50 (GA-10; [1]): 4.99 | GI50 (GA-10; corrected for time zero): 9.28 µM | pEC50 (GA-10; curve inflection point): 4.99 | pIC50 (L-428; [1]): 4.16 | GI50 (L-428; corrected for time zero): 53.1 µM | pEC50 (L-428; curve inflection point): 4.16 | pIC50 (LS123; [1]): 4.27 | GI50 (LS123; corrected for time zero): 22 µM | pEC50 (LS123; curve inflection point): 4.36 | pIC50 (OE19; [1]): < 4.00 | GI50 (OE19; corrected for time zero): 96.8 µM | pEC50 (OE19; curve inflection point): < 4.00 | pIC50 (RKOE6; [1]): 5.15 | GI50 (RKOE6; corrected for time zero): 6.28 µM | pEC50 (RKOE6; curve inflection point): 5.16
